38 compounds from ChEMBL document CHEMBL4270672, “Synthesis and Biological Evaluation of Fused Tricyclic Heterocycle Piperazine (Piperidine) Derivatives As Potential Multireceptor Atypical Antipsychotics” (J Med Chem, 2018) can be followed below.

As a reminder, the pKi is −log10 of the Ki, conventionally taken in molar units. A low value points to a large Ki.

pKi: −log10 of the molar value. Some results are limits rather than exact numbers.

Experiment [1] has as its target 5-hydroxytryptamine receptor 2A (Rattus norvegicus, UniProt P14842). In words: Displacement of [3H]-ketanserine from serotonin 5-HT2A receptor in rat brain cortex homogenates incubated for 30 mins by liquid scintillation counting. (In general: Displacement assays read how much labelled ligand stays bound in the presence of the test substance.)
Experiment [2] has as its target T1, 5-hydroxytryptamine receptor 1A (Rattus norvegicus, UniProt P19327).
T1 sequence (P19327 whole entry): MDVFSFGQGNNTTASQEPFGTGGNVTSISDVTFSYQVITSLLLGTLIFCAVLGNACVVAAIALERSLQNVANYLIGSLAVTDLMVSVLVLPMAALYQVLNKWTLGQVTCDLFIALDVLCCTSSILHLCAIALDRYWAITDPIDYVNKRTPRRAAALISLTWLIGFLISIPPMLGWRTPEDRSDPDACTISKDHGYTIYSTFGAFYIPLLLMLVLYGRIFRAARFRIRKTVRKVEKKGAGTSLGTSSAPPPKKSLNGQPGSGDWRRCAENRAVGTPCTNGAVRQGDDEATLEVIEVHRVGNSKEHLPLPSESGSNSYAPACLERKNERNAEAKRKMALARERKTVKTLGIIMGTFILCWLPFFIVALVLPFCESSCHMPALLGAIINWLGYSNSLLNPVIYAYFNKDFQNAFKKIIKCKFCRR

Experiment [3] concerns the target D(2) dopamine receptor (Rattus norvegicus, UniProt P61169).

Chain of D(2) dopamine receptor (P61169 whole entry): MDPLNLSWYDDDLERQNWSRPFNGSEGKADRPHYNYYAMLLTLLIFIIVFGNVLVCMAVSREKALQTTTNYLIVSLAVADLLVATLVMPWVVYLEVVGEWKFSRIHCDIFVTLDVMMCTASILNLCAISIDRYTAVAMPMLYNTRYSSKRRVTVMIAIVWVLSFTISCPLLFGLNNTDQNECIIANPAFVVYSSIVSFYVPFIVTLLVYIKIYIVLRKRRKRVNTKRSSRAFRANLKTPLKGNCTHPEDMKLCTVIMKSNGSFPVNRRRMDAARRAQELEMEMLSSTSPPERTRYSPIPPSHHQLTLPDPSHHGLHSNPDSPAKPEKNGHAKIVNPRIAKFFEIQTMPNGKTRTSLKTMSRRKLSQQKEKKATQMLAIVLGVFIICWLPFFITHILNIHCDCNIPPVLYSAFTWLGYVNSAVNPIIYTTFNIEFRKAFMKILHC
Chain of 5-hydroxytryptamine receptor 2A (P14842 whole entry): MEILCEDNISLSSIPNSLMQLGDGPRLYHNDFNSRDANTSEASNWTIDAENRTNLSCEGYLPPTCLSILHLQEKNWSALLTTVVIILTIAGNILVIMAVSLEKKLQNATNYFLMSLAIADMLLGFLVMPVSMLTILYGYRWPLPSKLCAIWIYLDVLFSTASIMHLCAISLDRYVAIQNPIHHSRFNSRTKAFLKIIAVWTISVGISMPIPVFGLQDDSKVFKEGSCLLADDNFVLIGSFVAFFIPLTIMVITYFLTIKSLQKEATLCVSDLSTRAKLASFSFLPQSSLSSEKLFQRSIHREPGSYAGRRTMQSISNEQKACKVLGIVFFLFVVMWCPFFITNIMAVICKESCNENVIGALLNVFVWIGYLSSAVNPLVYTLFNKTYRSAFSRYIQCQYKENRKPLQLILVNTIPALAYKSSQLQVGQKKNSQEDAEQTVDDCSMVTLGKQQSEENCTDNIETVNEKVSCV

Consider `O=C(CCN1CCN(c2ccccc2)CC1)c1cc2c3c(c1)CCC(=O)N3CCC2`, for which the pKi in experiment [1] is 6.12; in experiment [2], 5.73; in experiment [3], 5.75.

Regarding `Cc1cccc(N2CCN(CCC(=O)c3cc4c5c(c3)CCC(=O)N5CCC4)CC2)c1C`, the pKi was 6.68 in experiment [1], 6.71 in experiment [2] and 5.73 in experiment [3].

For the compound `O=C1CCc2cc(CCCN3CCC(c4noc5cc(F)ccc45)CC3)cc3c2N1CC3`, the pKi in experiment [1] is 7.53; in experiment [2], 7.41; in experiment [3], 7.33.

Take `O=C1CCc2cc(C(O)CCN3CCC(c4noc5cc(F)ccc45)CC3)cc3c2N1CC3` (centres undefined): the values for the negative-log Ki (pKi) in experiment [1], in experiment [2] and in experiment [3] were 7.22, 7.53 and 7.71, respectively.

With `N#Cc1ccc(N2CCN(CCC(=O)c3cc4c5c(c3)CCN5C(=O)CC4)CC2)c(F)c1`, the negative logarithm of the Ki (pKi) in experiment [1] was 6.41; in experiment [2], 6.32; in experiment [3] it was 6.24.

For the compound `O=C(CCN1CCN(c2cccc(Cl)c2Cl)CC1)c1cc2c3c(c1)CCN3C(=O)CC2`, the results for the negative-log Ki (pKi) in experiment [1], in experiment [2] and in experiment [3] were 7.03, 7.09 and 6.73, respectively.

For the compound `O=C(CCN1CCN(c2ccc(Cl)cc2)CC1)c1cc2c3c(c1)CCC(=O)N3CCC2`, the figures for the pKi in experiment [1], in experiment [2] and in experiment [3] were 6.14, 5.79 and below 5.70, respectively.

As for `O=C(CCCCCN1CCC(c2noc3cc(F)ccc23)CC1)c1cc2c3c(c1)CCN3C(=O)CC2`, the pKi in experiment [1] is 7.46; in experiment [2], 6.77; in experiment [3], 7.05.

In the case of `O=C(CCN1CCN(c2ccccn2)CC1)c1cc2c3c(c1)CCC(=O)N3CCC2`, the pKi in experiment [1] is 6.17; in experiment [2], 5.78; in experiment [3], 5.78.

Turning to `O=C(CCCN1CCN(c2cccc(Cl)c2Cl)CC1)c1cc2c3c(c1)CCN3C(=O)CC2`, the results for the pKi in experiment [1], in experiment [2] and in experiment [3] were 7.42, 7.27 and 6.98, respectively.

`O=C(CCN1CCN(c2nsc3ccccc23)CC1)c1cc2c3c(c1)CCC(=O)N3CCC2`: the pKi in experiment [1] was 7.14; in experiment [2], 6.89; in experiment [3], 6.74.

For `O=C(CCCN1CCC(c2noc3cc(F)ccc23)CC1)c1cc2c3c(c1F)CCC(=O)N3CC2`, the pKi in experiment [1] was 7.75; in experiment [2], 7.60; in experiment [3] it was 7.72.

Consider `O=C1CCc2cc(C(O)CCCN3CCC(c4noc5cc(F)ccc45)CC3)cc3c2N1CCC3` (centres undefined), for which the negative logarithm of the Ki (pKi) is 7.62 in experiment [1], 7.10 in experiment [2] and 7.53 in experiment [3].

Consider `O=C1CCc2cc(CCCCN3CCN(c4nsc5ccccc45)CC3)cc3c2N1CCC3`, for which the figures for the pKi in experiment [1], in experiment [2] and in experiment [3] were 7.08, 7.01 and 6.81, respectively.

Take `O=C1CCc2cc(CCCN3CCC(c4noc5cc(F)ccc45)CC3)cc3c2N1CCC3`: the negative-log Ki (pKi) in experiment [1] was 7.13; in experiment [2], 7.23; in experiment [3], 7.35.

On to `O=C(CCCCN1CCC(c2noc3cc(F)ccc23)CC1)c1cc2c3c(c1)CCC(=O)N3CCC2`, for which the figures for the pKi in experiment [1], in experiment [2] and in experiment [3] were 7.72, 7.49 and 7.50, respectively.

Regarding `O=C1CCc2cc(CCCCCN3CCC(c4noc5cc(F)ccc45)CC3)cc3c2N1CC3`, the negative-log Ki (pKi) was 7.23 in experiment [1], 7.27 in experiment [2] and 7.36 in experiment [3].

As for `O=C(CCN1CCN(c2cccc(Cl)c2Cl)CC1)c1cc2c3c(c1)CCC(=O)N3CCC2`, the results for the pKi in experiment [1], in experiment [2] and in experiment [3] were 6.68, 6.57 and 5.91, respectively.

In the case of `O=C1CCc2cc(CCCCN3CCN(c4cccc(Cl)c4Cl)CC3)cc3c2N1CCC3`, the results for the negative-log Ki (pKi) in experiment [1], in experiment [2] and in experiment [3] were 7.01, 6.71 and 6.40, respectively.

For `CC1CC(=O)N2CCCc3cc(CCCCN4CCC(c5noc6cc(F)ccc56)CC4)cc1c32` (centres undefined), the pKi is 7.08 in experiment [1], 7.08 in experiment [2] and 7.07 in experiment [3].

Regarding `O=C(CCN1CCC(c2noc3cc(F)ccc23)CC1)c1cc2c3c(c1)CCC(=O)N3CCC2`, the negative logarithm of the Ki (pKi) in experiment [1] was 7.28; in experiment [2], 7.20; in experiment [3] it was 7.24.

With `O=C(CCCN1CCN(c2cccc(Cl)c2Cl)CC1)c1cc2c3c(c1)CCC(=O)N3CCC2`, the results for the negative-log Ki (pKi) in experiment [1], in experiment [2] and in experiment [3] were 7.10, 6.83 and 6.55, respectively.

Regarding `O=C(CCCN1CCN(c2nsc3ccccc23)CC1)c1cc2c3c(c1)CCC(=O)N3CCC2`, the pKi in experiment [1] was 7.06; in experiment [2], 6.82; in experiment [3] it was 7.04.

As to `Cc1cccc(N2CCN(CCC(=O)c3cc4c5c(c3)CCN5C(=O)CC4)CC2)c1C`, the pKi was 6.76 in experiment [1], 7.07 in experiment [2] and 6.72 in experiment [3].

On to `COc1ccccc1N1CCN(CCC(=O)c2cc3c4c(c2)CCC(=O)N4CCC3)CC1`, for which the figures for the negative logarithm of the Ki (pKi) in experiment [1], in experiment [2] and in experiment [3] were 6.75, 6.02 and below 5.70, respectively.

As for `O=C(CCCN1CCC(c2noc3cc(F)ccc23)CC1)c1cc2c3c(c1)CCC(=O)N3CCC2`, the pKi is 7.65 in experiment [1], 7.48 in experiment [2] and 7.74 in experiment [3].

Regarding `Cc1cccc(N2CCN(CCCC(=O)c3cc4c5c(c3)CCC(=O)N5CCC4)CC2)c1C`, the pKi in experiment [1] was 7.23; in experiment [2], 6.77; in experiment [3], 6.73.

Consider `O=C(CCN1CCC(c2nc3ccccc3s2)CC1)c1cc2c3c(c1)CCC(=O)N3CCC2`, for which the values for the negative logarithm of the Ki (pKi) in experiment [1], in experiment [2] and in experiment [3] were 6.76, 6.41 and 6.06, respectively.

In the case of `O=C1CCc2cc(C(O)CCN3CCC(c4noc5cc(F)ccc45)CC3)cc3c2N1CCC3` (centres undefined), the negative logarithm of the Ki (pKi) is 7.70 in experiment [1], 7.71 in experiment [2] and 7.55 in experiment [3].

`O=C(CCCN1CCC(c2noc3cc(F)ccc23)CC1)c1cc2c3c(c1F)CCN3C(=O)CC2`: the negative-log Ki (pKi) was 7.66 in experiment [1], 7.72 in experiment [2] and 7.74 in experiment [3].

Regarding `O=C(CN1CCC(c2noc3cc(F)ccc23)CC1)c1cc2c3c(c1)CCC(=O)N3CCC2`, the negative-log Ki (pKi) in experiment [1] is 6.12; in experiment [2] it was below 5.70; in experiment [3] it was 6.05.

For the compound `O=C(CCCN1CCN(c2nsc3ccccc23)CC1)c1cc2c3c(c1)CCN3C(=O)CC2`, the figures for the pKi in experiment [1], in experiment [2] and in experiment [3] were 7.30, 7.50 and 7.30, respectively.

As to `O=C1CCc2cc(CCCN3CCN(c4cccc(Cl)c4Cl)CC3)cc3c2N1CCC3`, the pKi in experiment [1] is 6.73; in experiment [2] it was 6.71; in experiment [3] it was 6.24.

As to `O=C(CCN1CCC(c2noc3cc(F)ccc23)CC1)c1cc2c3c(c1)CCN3C(=O)CC2`, the pKi in experiment [1] was 7.76; in experiment [2], 7.79; in experiment [3] it was 7.71.

As to `O=C1CCc2cc(CCCCN3CCC(c4noc5cc(F)ccc45)CC3)cc3c2N1CCC3`, the figures for the pKi in experiment [1], in experiment [2] and in experiment [3] were 7.23, 7.16 and 7.13, respectively.

With `O=C(CCN1CCN(c2ncccn2)CC1)c1cc2c3c(c1)CCC(=O)N3CCC2`, the negative-log Ki (pKi) in experiment [1] is 6.25; in experiment [2], 5.71; in experiment [3] it was below 5.70.

As for `O=C(CCN1CCN(c2nsc3ccccc23)CC1)c1cc2c3c(c1)CCN3C(=O)CC2`, the pKi was 7.16 in experiment [1], 7.26 in experiment [2] and 7.05 in experiment [3].

On to `CC1CC(=O)N2CCCc3cc(C(=O)CCCN4CCC(c5noc6cc(F)ccc56)CC4)cc1c32` (centres undefined), for which the pKi in experiment [1] was 7.49; in experiment [2], 7.37; in experiment [3] it was 7.21.
